In the assay the target is T1, CKL4 (Arabidopsis thaliana, UniProt Q8LPI7).
T1 sequence (Q8LPI7 1-414): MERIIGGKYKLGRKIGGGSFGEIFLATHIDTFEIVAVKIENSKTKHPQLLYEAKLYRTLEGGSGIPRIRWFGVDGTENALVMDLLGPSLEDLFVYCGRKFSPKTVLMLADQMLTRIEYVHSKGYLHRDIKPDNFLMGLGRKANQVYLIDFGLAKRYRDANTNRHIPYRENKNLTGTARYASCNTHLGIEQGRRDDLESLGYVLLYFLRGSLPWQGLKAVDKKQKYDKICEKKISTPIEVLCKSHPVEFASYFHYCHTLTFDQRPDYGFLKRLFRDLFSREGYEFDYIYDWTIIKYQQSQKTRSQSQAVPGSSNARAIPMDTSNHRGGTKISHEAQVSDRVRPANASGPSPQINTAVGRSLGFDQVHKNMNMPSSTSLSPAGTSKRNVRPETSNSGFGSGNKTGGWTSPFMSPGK
Kind of assay: in vitro kinase assay with isotope-labeled ATP. In kind it is biochemical.

As usually defined, the IC50 is the point on the concentration scale where inhibition reaches its midpoint. A low value points to higher potency. On to `O=C1NCCc2[nH]c(-c3ccncc3)cc21` [PHA767491], for which the IC50 was approximately 5 µM.

The values above are taken from PMC6561244 (Proceedings of the National Academy of Sciences of the …, 2019).
